{"source": "patent US7208528B1", "about": "“Polyamine analogues as therapeutic and diagnostic agents” (MediQuest Therapeutics, Inc., priority 1997, dated 2007)", "key": {"[1]": {"tested_on": "wild-type L1210 cancer cells", "conditions": "cited from earlier work"}, "[2]": {"tested_on": "mutant L1210 leukemia cells deficient in polyamine uptake", "conditions": "cited from earlier work"}, "MDA-MB-231 cells": {"tested_on": "MDA-MB-231 cells", "assay": "Growth assay of MDA-MB-231 cells with ODC inhibitor (DFMO) and 1 μM spermidine", "conditions": "alone, in the presence of 1 μM SPD", "description": "The estrogen insensitive human breast carcinoma MDA-MB-231 cell line as the primary cell line in the screen. […] In order to optimize the screen for polyamine transport inhibition, 1.0 μM spermidine was added to media to reverse the effects of ODC inhibitors. The assay was also performed over seven days because this allows for the greatest dynamic range in cell growth due to the mechanism of ODC inhibitors. Cells need to divide several times before the intracellular level of polyamines begin to decrease to growth inhibitory levels.\nCompounds were tested for their ability to inhibit cell growth in the presence of 1 μM spermidine and 230 μM ODC inhibitor for the MDA-MB-231 cells or 1 mM ODC inhibitor for the PC3 cells.\nIn our six day growth assays, 1202 was tested at increasing concentrations with the optimal concentration of DFMO."}, "[3]": {"tested_on": "polyamine transport system of MDA cells", "assay": "SPD transport inhibition and recovery after washing in MDA cells", "assay_type": "cell-based, human", "conditions": "3 day incubation"}, "[4]": {"tested_on": "MDA breast carcinoma cells", "assay": "Rescue from DFMO-induced growth inhibition of MDA cells without added polyamines, six day growth assay", "assay_type": "cell-based, human", "conditions": "Homo sapiens, Breast carcinoma cell, 144 h; 230 μM, no additional polyamines, six day growth assay; read-out: cell number, % of control", "experimental": "An additional series of spermine amides were evaluated to extend the structure-activity relationship around this polyamine transport target.\nGrowth assays were done over a six day period in order to allow for polyamine depletion within cells. When synthesis of polyamines is inhibited, cells compensate by increasing transport of extracellular polyamines into the cell. Over the time course of the assay, polyamines in the culture media may be depleted resulting in growth inhibition."}, "MDA cells [5]": {"tested_on": "MDA cells", "assay": "Long term (three week) growth of MDA cells with DFMO, 1202 or both", "assay_type": "cell-based, human", "conditions": "DFMO 500 μM or 1202 60 μM alone, three weeks"}, "MDA cells [6]": {"tested_on": "MDA cells", "assay": "Intracellular polyamine levels in MDA cells after long term treatment", "assay_type": "cell-based, human", "conditions": "DFMO alone, one and three weeks", "text": "We examined the intracellular polyamine levels in MDA cells after 6 and 20 days of growth in the presence of polyamine synthesis inhibitor or transport inhibitor, or both."}, "[7]": {"tested_on": "polyamine transport system of MDA cells", "assay": "Transport Km and Vmax with 3H-SPD after long term treatment of MDA cells", "assay_type": "cell-based, human", "conditions": "DFMO in the presence of SPD", "text": "We wished to determine the effects of long term treatment with DFMO, 1202, or both, on polyamine transport characteristics."}, "[8]": {"conditions": "mice inoculated with mutant L1210 cells"}}}
{"compound": "NCCC[C@](N)(C(=O)O)C(F)F", "note": "[DFMO, α-difluoromethylornithine]", "values": [{"measurement": "increase in median survival time", "setting": "[1]; mice inoculated with the parental cell line", "value": 22, "unit": "%"}, {"measurement": "time to death", "setting": "[1]; wild-type L1210, treated with DFMO", "value": 12, "unit": "days"}, {"measurement": "survival", "setting": "[2]; PAT-deficient L1210 cells, DFMO", "value": "> 60", "unit": "days"}, {"measurement": "increase in median survival time", "setting": "[2]; [8]", "value": 87, "unit": "%"}, {"measurement": "mice cured", "setting": "[2]; [8]", "value": "13 of 40"}, {"measurement": "effect on growth of single agent", "setting": "MDA-MB-231 cells", "value": "minimal"}, {"measurement": "up-regulation of SPD transport", "setting": "[3]", "value": 3, "unit": "fold"}, {"measurement": "activity at 230 µM", "setting": "[4]", "value": 35, "unit": "%"}, {"measurement": "growth rate with single compound", "setting": "MDA cells [5]", "value": "little difference in growth rate"}, {"measurement": "decrease in PUT levels", "setting": "MDA cells [6]", "value": "69–86%"}, {"measurement": "change in Vmax", "setting": "[7]", "value": "no change"}]}
